Broadly, the melting point is the temperature of the solid-liquid transition.

As to `CN1CCC(N2CCN(C(=O)[C@@H](CC(N)=O)NC(=O)c3ccc4cc[nH]c4c3)CC2)CC1.Cl`, the melting point was 215 to 219 °C (dec.).

`CN1CCC(C[C@@H](NC(=O)c2ccc3cc[nH]c3c2)C(=O)N2CCN(C3CCN(C)CC3)CC2)CC1.Cl`: the melting point was 190 to 193 °C (dec.). Regarding `CN1CCC(N2CCN(C(=O)[C@@H](CC(N)=O)NC(=O)c3cc4ccc(Cl)cc4s3)CC2)CC1.Cl`, the melting point was 219 to 223 °C (dec.). With `CN1CCC(C[C@@H](NC(=O)c2cc3ccc(Cl)cc3s2)C(=O)N2CCN(C3CCN(C)CC3)CC2)CC1.Cl` the figure was 220 to 223 °C (dec.); with `CN1CCC(C2CCN(C(=O)[C@@H](Cc3cn(C)cn3)NC(=O)c3ccc4cc[nH]c4c3)CC2)CC1.Cl`, 179 to 185 °C (dec.).

As for `CN1CCC(C2CCN(C(=O)[C@H](CC3CCOCC3)NC(=O)c3ccc4cc[nH]c4c3)CC2)CC1.Cl`, the melting point is 162 to 178 °C (dec.). Turning to `CN1CCC(C2CCN(C(=O)[C@@H](Cc3ccccn3)NC(=O)c3ccc4cc[nH]c4c3)CC2)CC1.Cl`, the melting point is 175 to 179 °C (dec.). With `CN1CCC(N2CCN(C(=O)[C@@H](Cc3ccncc3)NC(=O)c3ccc4cc[nH]c4c3)CC2)CC1.Cl` the figure was 228 to 235 °C (dec.); with `CN1CCC(N2CCN(C(=O)[C@@H](Cc3ccccn3)NC(=O)c3cc4ccc(Cl)cc4s3)CC2)CC1.Cl`, 219 to 223 °C (dec.); with `CN1CCC(N2CCN(C(=O)[C@@H](Cc3ccncc3)NC(=O)c3cc4ccc(Cl)cc4s3)CC2)CC1.Cl`, 213 to 217 °C (dec.). As for `CN1CCC(N2CCN(C(=O)[C@@H](Cc3ccncc3)NC(=O)c3cc4cc(Cl)ccc4[nH]3)CC2)CC1.Cl`, the melting point is 238 to 242 °C (dec.). On to `CN1CCC(N2CCN(C(=O)[C@@H](CC(N)=O)NC(=O)c3cc4cc(Cl)ccc4[nH]3)CC2)CC1.Cl`, for which the melting point was 235 to 240 °C (dec.). With `CN1CCC(N2CCN(C(=O)[C@@H](Cc3ccccn3)NC(=O)c3cc4cc(Cl)ccc4[nH]3)CC2)CC1.Cl` the figure was 210 to 214 °C (dec.); with `CN1CCC(C[C@@H](NC(=O)c2cc3cc(Cl)ccc3[nH]2)C(=O)N2CCN(C3CCN(C)CC3)CC2)CC1.Cl`, 205 to 210 °C (dec.). With `CN1CCC(N2CCN(C(=O)[C@@H](CCC(=O)O)NC(=O)c3ccc4cc[nH]c4c3)CC2)CC1.Cl`, the melting point was 215 to 218 °C (dec.). For the compound `CN1CCC(N2CCN(C(=O)[C@@H](CCC(=O)O)NC(=O)c3cc4ccc(Cl)cc4s3)CC2)CC1.Cl`, the melting point was 185 to 190 °C (dec.). The same measure for `CN1CCC(N2CCN(C(=O)[C@@H](CCC(=O)O)NC(=O)c3cc4cc(Cl)ccc4[nH]3)CC2)CC1.Cl`: 222 to 225 °C (dec.). The same measure for `CN1CCC(C2CCN(C(=O)[C@@H](Cc3cccnc3)NC(=O)c3ccc4cc[nH]c4c3)CC2)CC1.Cl`: 177 to 182 °C (dec.); for `CN1CCC(C2CCN(C(=O)[C@@H](Cc3ccncc3)NC(=O)c3ccc4cc[nH]c4c3)CC2)CC1.Cl`: 183 to 186 °C (dec.). On to `CN1CCC(N2CCN(C(=O)[C@@H](Cc3ccccn3)NC(=O)c3ccc4cc[nH]c4c3)CC2)CC1.Cl`, for which the melting point is 232 to 235 °C (dec.). With `CN1CCC(C2CCN(C(=O)[C@@H](CC3CCCCC3)NC(=O)c3ccc4cc[nH]c4c3)CC2)CC1.Cl` the figure was 162 to 172 °C (dec.).

For the origin of these results see patent US7115609B2, “Alanyl-piperidine heterocyclic derivatives useful against cardiovascular diseases” (Eli Lilly and Company, priority 2001, dated 2006).
